Test results: publication PMC4832243, “Discovery of Potent VEGFR-2 Inhibitors based on Furopyrimidine and Thienopyrimidne Scaffolds as Cancer Targeting Agents” (Scientific Reports, 2016)

What was measured:
[1] = test system: SK-MEL-28; experiment: NCI 60 cell line panel (SRB), SK-MEL-28; format: cell-based; settings: Homo sapiens; SK-MEL-28, Melanoma; single dose of 10 μM; read-out: Cell Growth Percent
[2] = test system: SNB-19; experiment: NCI 60 cell line panel (SRB), SNB-19; format: cell-based; settings: Homo sapiens; SNB-19, CNS Cancer; single dose of 10 μM; read-out: Cell Growth Percent
[3] = test system: RXF 393; experiment: NCI 60 cell line panel (SRB), RXF 393; format: cell-based; settings: Homo sapiens; RXF 393, Renal Cancer; single dose of 10 μM; read-out: Cell Growth Percent
[4] = test system: KM12; experiment: NCI 60 cell line panel (SRB), KM12; format: cell-based; settings: Homo sapiens; KM12, Colon Cancer; single dose of 10 μM; read-out: Cell Growth Percent
[5] = test system: TK-10; experiment: NCI 60 cell line panel (SRB), TK-10; format: cell-based; settings: Homo sapiens; TK-10, Renal Cancer; single dose of 10 μM; read-out: Cell Growth Percent
[6] = test system: M14; experiment: NCI 60 cell line panel (SRB), M14; format: cell-based; settings: Homo sapiens; M14, Melanoma; single dose of 10 μM; read-out: Cell Growth Percent
[7] = test system: HCC-2998; experiment: NCI 60 cell line panel (SRB), HCC-2998; format: cell-based; settings: Homo sapiens; HCC-2998, Colon Cancer; single dose of 10 μM; read-out: Cell Growth Percent
[8] = test system: OVCAR-3; experiment: NCI 60 cell line panel (SRB), OVCAR-3; format: cell-based; settings: Homo sapiens; OVCAR-3, Ovarian Cancer; single dose of 10 μM; read-out: Cell Growth Percent
[9] = test system: BT-549; experiment: NCI 60 cell line panel (SRB), BT-549; format: cell-based; settings: Homo sapiens; BT-549, Breast Cancer; single dose of 10 μM; read-out: Cell Growth Percent
[10] = test system: UO-31; experiment: NCI 60 cell line panel (SRB), UO-31; format: cell-based; settings: Homo sapiens; UO-31, Renal Cancer; single dose of 10 μM; read-out: Cell Growth Percent
[11] = test system: MALME-3M; experiment: NCI 60 cell line panel (SRB), MALME-3M; format: cell-based; settings: Homo sapiens, Melanoma, single dose of 10 μM, read-out: Cell Growth Percent
[12] = test system: SK-OV-3; experiment: NCI 60 cell line panel (SRB), SK-OV-3; format: cell-based; settings: Homo sapiens; SK-OV-3, Ovarian Cancer; single dose of 10 μM; read-out: Cell Growth Percent
[13] = test system: HCT-116; experiment: NCI 60 cell line panel (SRB), HCT-116; format: cell-based; settings: Homo sapiens; HCT-116, Colon Cancer; single dose of 10 μM; read-out: Cell Growth Percent
[14] = test system: SF-539; experiment: NCI 60 cell line panel (SRB), SF-539; format: cell-based; settings: Homo sapiens; SF-539, CNS Cancer; single dose of 10 μM; read-out: Cell Growth Percent
[15] = test system: CCRF-CEM; experiment: NCI 60 cell line panel (SRB), CCRF-CEM; format: cell-based; settings: Homo sapiens, Leukemia, single dose of 10 μM, read-out: Cell Growth Percent
[16] = test system: SW-620; experiment: NCI 60 cell line panel (SRB), SW-620; format: cell-based; settings: Homo sapiens; SW-620, Colon Cancer; single dose of 10 μM; read-out: Cell Growth Percent
[17] = test system: SNB-75; experiment: NCI 60 cell line panel (SRB), SNB-75; format: cell-based; settings: Homo sapiens; SNB-75, CNS Cancer; single dose of 10 μM; read-out: Cell Growth Percent
[18] = test system: HCT-15; experiment: NCI 60 cell line panel (SRB), HCT-15; format: cell-based; settings: Homo sapiens; HCT-15, Colon Cancer; single dose of 10 μM; read-out: Cell Growth Percent
[19] = test system: LOX IMVI; experiment: NCI 60 cell line panel (SRB), LOX IMVI; format: cell-based; settings: Homo sapiens, Melanoma, single dose of 10 μM, read-out: Cell Growth Percent
[20] = test system: NCI-H23; experiment: NCI 60 cell line panel (SRB), NCI-H23; format: cell-based; settings: Homo sapiens; NCI-H23, Non-Small Cell Lung Cancer; single dose of 10 μM; read-out: Cell Growth Percent
[21] = test system: A549/ATCC; experiment: NCI 60 cell line panel (SRB), A549/ATCC; format: cell-based; settings: Homo sapiens, Non-Small Cell Lung Cancer, single dose of 10 μM, read-out: Cell Growth Percent
[22] = test system: MDA-MB-231/ATCC; experiment: NCI 60 cell line panel (SRB), MDA-MB-231/ATCC; format: cell-based; settings: Homo sapiens, Breast Cancer, single dose of 10 μM, read-out: Cell Growth Percent
[23] = test system: IGROV1; experiment: NCI 60 cell line panel (SRB), IGROV1; format: cell-based; settings: Homo sapiens, IGROV-1; IGROV1, Ovarian Cancer; single dose of 10 μM; read-out: Cell Growth Percent
[24] = test system: MOLT-4; experiment: NCI 60 cell line panel (SRB), MOLT-4; format: cell-based; settings: Homo sapiens; MOLT-4, Leukemia; single dose of 10 μM; read-out: Cell Growth Percent

Structure (SMILES)	activity at 10 µM [1] [%]	activity at 10 µM [2] [%]	activity at 10 µM [3] [%]	activity at 10 µM [4] [%]	activity at 10 µM [5] [%]	activity at 10 µM [6] [%]	activity at 10 µM [7] [%]	activity at 10 µM [8] [%]	activity at 10 µM [9] [%]	activity at 10 µM [10] [%]	activity at 10 µM [11] [%]	activity at 10 µM [12] [%]	activity at 10 µM [13] [%]	activity at 10 µM [14] [%]	activity at 10 µM [15] [%]	activity at 10 µM [16] [%]	activity at 10 µM [17] [%]	activity at 10 µM [18] [%]	activity at 10 µM [19] [%]	activity at 10 µM [20] [%]	other results
CCOC(=O)c1c(C)oc2ncnc(Nc3ccc(C(=O)Nc4ccc(OC)cc4)cc3)c12 [Compound 14b]	95.2	108	92	96.1	102	101	114	110	61.9	94.3	120	94.1	85.1	63.8	89.1	112	87.2	88.5	93.2	95.6	melting point: 218 to 222 °C; activity at 10 µM [21]: 93.3%; activity at 10 µM [22]: 91%; activity at 10 µM [23]: 108%; activity at 10 µM [24]: 92.3%
O=C(Nc1ccccc1)Nc1ccc(Nc2ncnc3sc4c(c23)CCCC4)cc1 [Compound 20a]	116	95.9	102	102	124	103	95.3	103	109	71.5	102	99.5	114	104	92.3	106	93.3	110	99.4	100	activity at 10 µM [21]: 73.8%; activity at 10 µM [22]: 91.6%; activity at 10 µM [23]: 107%; activity at 10 µM [24]: 89.4%
COc1cccc(NC(=O)Nc2ccc(Nc3ncnc4sc5c(c34)CCCC5)cc2)c1 [Compound 20c]	93.3	95.2	116	89.6	129	89.8	118	99.1	85.8	61	79.9	88.4	91	60.2	94.6	112	62.7	97.8	94.4	104	melting point: 206 to 210 °C; activity at 10 µM [21]: 78.3%; activity at 10 µM [22]: 89%; activity at 10 µM [23]: 106%; activity at 10 µM [24]: 81.3%
O=C(Nc1ccc(Cl)cc1)Nc1ccc(Oc2ncnc3sc4c(c23)CCCC4)cc1 [Compound 21d]	92.6	79.5	87.7	69.1	88.3	87	107	85.8	112	71.2	98.9	90.8	82.6	70.9	77.9	97.7	70.8	91.6	84.8	87.4	melting point: > 300 °C; activity at 10 µM [21]: 66.6%; activity at 10 µM [22]: 70.1%; activity at 10 µM [23]: 108%; activity at 10 µM [24]: 72%
CCOC(=O)c1c(C)oc2ncnc(Nc3ccc(C(=O)Nc4cccc(Cl)c4)cc3)c12 [Compound 14a]	105	102	76.8	93.8	102	95.2	105	110	87.6	89.5	122	112	85.5	107	93.8	106	105	108	93.1	100	melting point: 226 to 230 °C; activity at 10 µM [21]: 95.3%; activity at 10 µM [22]: 95.8%; activity at 10 µM [23]: 105%; activity at 10 µM [24]: 94%
CCOC(=O)c1c(C)oc2ncnc(Nc3ccc(NC(=O)Nc4cccc(Cl)c4)cc3)c12 [Compound 15d]	61.8	84.6	63.6	61	79.1	48.6	105	80.8	61.5	50.3	81.4	93.2	50.7	16.6	31.5	88.6	70.6	58.9	64.1	64	activity at 10 µM [21]: 32.3%; activity at 10 µM [22]: 18.6%; activity at 10 µM [23]: 78.4%; activity at 10 µM [24]: 49.2%
CCOC(=O)c1c(C)oc2ncnc(Nc3ccc(C(=O)NCCc4ccccc4)cc3)c12 [Compound 14e]	87.8	84	71.7	89	102	81.2	91.4	97.2	67.3	97.3	89.5	85.5	64.7	58.9	80.9	105	7	92.2	75.2	81.8	melting point: 176 to 180 °C; activity at 10 µM [21]: 56.6%; activity at 10 µM [22]: 85.6%; activity at 10 µM [23]: 102%; activity at 10 µM [24]: 105%
O=C(Nc1ccc(Nc2ncnc3sc4c(c23)CCCC4)cc1)Nc1cccc(Cl)c1 [Compound 20d]	104	108	115	105	108	99.3	103	110	100	90.9	97.9	98.6	112	90.8	97.7	108	94.4	104	103	103	activity at 10 µM [21]: 74.2%; activity at 10 µM [22]: 101%; activity at 10 µM [23]: 113%; activity at 10 µM [24]: 92.3%
